Test results taken from ChEMBL document CHEMBL5729244, “Heterocycle compounds as Tyro3, Axl and MerTK (TAM) family of receptor tyrosine kinase inhibitors” (2022).

Tests used:
[1] = target: T1, Tyrosine-protein kinase receptor UFO (Homo sapiens, UniProt P30530)
T1 sequence (P30530 whole entry): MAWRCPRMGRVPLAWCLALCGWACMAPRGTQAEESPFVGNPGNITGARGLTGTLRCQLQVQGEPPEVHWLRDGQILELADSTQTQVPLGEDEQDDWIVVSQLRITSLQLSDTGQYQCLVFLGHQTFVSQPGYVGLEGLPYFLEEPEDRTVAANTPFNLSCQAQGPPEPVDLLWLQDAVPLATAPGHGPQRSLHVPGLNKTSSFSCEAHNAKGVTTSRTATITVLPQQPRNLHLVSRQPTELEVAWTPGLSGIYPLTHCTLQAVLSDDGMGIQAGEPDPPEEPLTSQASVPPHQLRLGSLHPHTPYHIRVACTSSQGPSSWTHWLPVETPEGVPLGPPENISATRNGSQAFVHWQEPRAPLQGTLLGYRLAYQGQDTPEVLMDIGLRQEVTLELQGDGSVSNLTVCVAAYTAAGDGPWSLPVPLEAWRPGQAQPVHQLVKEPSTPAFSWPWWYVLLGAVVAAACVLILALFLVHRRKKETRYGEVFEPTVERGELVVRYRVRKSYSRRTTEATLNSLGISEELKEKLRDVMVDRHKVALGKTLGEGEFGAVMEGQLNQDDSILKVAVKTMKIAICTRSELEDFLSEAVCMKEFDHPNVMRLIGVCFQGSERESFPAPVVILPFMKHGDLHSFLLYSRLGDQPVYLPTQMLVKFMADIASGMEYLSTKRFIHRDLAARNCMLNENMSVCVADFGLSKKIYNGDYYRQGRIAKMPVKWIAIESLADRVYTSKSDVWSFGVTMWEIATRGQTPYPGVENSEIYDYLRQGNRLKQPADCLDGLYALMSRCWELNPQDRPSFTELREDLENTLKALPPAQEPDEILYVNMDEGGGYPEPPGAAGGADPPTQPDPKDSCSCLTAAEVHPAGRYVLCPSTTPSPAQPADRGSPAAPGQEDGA

[2] = target: T2, Tyrosine-protein kinase Mer (Homo sapiens, UniProt Q12866)
T2 sequence (Q12866 whole entry): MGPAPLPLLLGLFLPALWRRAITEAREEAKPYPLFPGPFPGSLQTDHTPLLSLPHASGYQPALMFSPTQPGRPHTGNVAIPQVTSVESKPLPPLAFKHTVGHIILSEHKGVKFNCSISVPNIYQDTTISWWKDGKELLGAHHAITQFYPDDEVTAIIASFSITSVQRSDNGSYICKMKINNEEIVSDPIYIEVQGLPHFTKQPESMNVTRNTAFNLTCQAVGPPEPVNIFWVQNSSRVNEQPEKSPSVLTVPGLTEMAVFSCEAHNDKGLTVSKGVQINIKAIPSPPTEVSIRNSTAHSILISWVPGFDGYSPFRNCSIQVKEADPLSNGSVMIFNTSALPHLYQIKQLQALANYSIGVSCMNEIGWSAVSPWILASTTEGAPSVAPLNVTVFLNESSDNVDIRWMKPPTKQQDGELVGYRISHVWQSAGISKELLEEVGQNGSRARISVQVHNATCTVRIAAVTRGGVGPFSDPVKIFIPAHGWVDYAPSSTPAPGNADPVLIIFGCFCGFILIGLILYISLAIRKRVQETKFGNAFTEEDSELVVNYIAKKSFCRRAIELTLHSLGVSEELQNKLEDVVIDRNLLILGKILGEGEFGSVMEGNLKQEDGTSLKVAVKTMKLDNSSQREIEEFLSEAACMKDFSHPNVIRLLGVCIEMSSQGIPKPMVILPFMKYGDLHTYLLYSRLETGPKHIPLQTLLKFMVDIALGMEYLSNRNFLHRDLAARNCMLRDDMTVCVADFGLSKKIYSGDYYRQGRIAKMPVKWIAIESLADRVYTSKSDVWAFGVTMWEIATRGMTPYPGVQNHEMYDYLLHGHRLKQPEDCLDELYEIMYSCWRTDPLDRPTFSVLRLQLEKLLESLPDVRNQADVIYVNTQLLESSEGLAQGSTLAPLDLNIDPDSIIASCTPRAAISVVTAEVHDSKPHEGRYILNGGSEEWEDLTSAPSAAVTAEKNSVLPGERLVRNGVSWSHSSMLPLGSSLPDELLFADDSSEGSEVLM

IC50 [1] [nM] | IC50 [2] [nM] | Compound
< 30 | > 1000 | COCCOc1nc(Nc2ccc(CN3CCN(C)CC3)cc2)nc2[nH]cc(-c3ccc4c(n3)CN(C)S4(=O)=O)c12
< 30 |  | COc1nc(Nc2ccc(CN3CCC(C)CC3)cc2)nc2[nH]cc(-c3ccc(F)cc3F)c12
